Assay results reported in the OligoGym collection.
Values joined by “and” are separate entries in the source; they are usually repeats but may differ in a detail not shown here. Equal entries are not always repeated. After the bases stand the sugars from the 5' end (letter, count) and the backbone: PS all phosphorothioate, else s phosphorothioate and o phosphodiester by linkage. Methylation of C is not given here. e = 2'-O-(2-methoxyethyl) (MOE); d = 2'-deoxy (DNA)

Target: DGAT2
Conditions: ASO

CCATGTCAGAGAGGCTCAGC (sugars e5 d10 e5, PS)
target mRNA inhibition (HepG2, 2.5 µM): 45% | target mRNA inhibition (HepG2, 10 µM): 86%

CCCACTGGAGCACTGAGATG (sugars e2 d13 e5, PS)
target mRNA inhibition (HepG2, 0.12 µM): 70%

CCCACTGGGACATCTGGCCC (sugars e5 d10 e5, PS)
target mRNA inhibition (HepG2, 2.5 µM): 66% | target mRNA inhibition (HepG2, 10 µM): 88%

CCCCCATCCTCATCCTGGAG (sugars e5 d10 e5, PS)
target mRNA inhibition (HepG2, 0.12 µM): 7%

CCGGACTGAATGTCACC (sugars e3 d10 e4, PS)
target mRNA inhibition (HepG2, 2.5 µM): 79% and 82%

CCTAAGGAGTGAGGGTATCT (sugars e5 d10 e5, PS)
target mRNA inhibition (HepG2, 2.5 µM): 39% and 50% | target mRNA inhibition (HepG2, 10 µM): 87% and 92%

CCTAGGTACAAGTTTCTCCA (sugars e5 d10 e5, PS)
target mRNA inhibition (HepG2, 2.5 µM): 65% | target mRNA inhibition (HepG2, 10 µM): 87%

CCTCAGGAAGGCACAGAAAA (sugars e5 d10 e5, PS)
target mRNA inhibition (HepG2, 0.12 µM): 40%

CCTCCAGACATCAGGTACTC (sugars e5 d10 e5, PS)
target mRNA inhibition (HepG2, 0.12 µM): 29%

CCTCCAGGACCTCAGTCTCC (sugars e5 d10 e5, PS)
target mRNA inhibition (HepG2, 0.12 µM): 66%

CCTCCTCGAAGATCACCTGC (sugars e5 d10 e5, PS)
target mRNA inhibition (HepG2, 0.12 µM): 49%

CCTCTCCTGTTTGATGGGTA (sugars e5 d10 e5, PS)
target mRNA inhibition (HepG2, 2.5 µM): 78% and 85% and 87% | target mRNA inhibition (HepG2, 10 µM): 91% and 78% and 88%

CCTCTTAGAAGTAATGCTTC (sugars e5 d10 e5, PS)
target mRNA inhibition (HepG2, 2.5 µM): 83% and 78% | target mRNA inhibition (HepG2, 10 µM): 92% and 90%

CCTTAGCTTTAATCCAGGAT (sugars e5 d10 e5, PS)
target mRNA inhibition (HepG2, 2.5 µM): 70% | target mRNA inhibition (HepG2, 10 µM): 89%

CGCAGGACCCCGGAGTAGGC (sugars e2 d13 e5, PS)
target mRNA inhibition (HepG2, 0.12 µM): 71%

CGCAGGACCCCGGAGTAGGC (sugars e5 d10 e5, PS)
target mRNA inhibition (HepG2, 0.12 µM): 75% and 70%

CGCGCAGGACCCCGGAGTAG (sugars e3 d14 e3, PS)
target mRNA inhibition (HepG2, 0.12 µM): 69%

CGCGCAGGACCCCGGAGTAG (sugars e5 d10 e5, PS)
target mRNA inhibition (HepG2, 0.12 µM): 74%

CGTTGGTCTTTTTGGCTGCC (sugars e5 d10 e5, PS)
target mRNA inhibition (HepG2, 2.5 µM): 88% | target mRNA inhibition (HepG2, 10 µM): 81%

CTATAGAATCAGACAGACCT (sugars e5 d10 e5, PS)
target mRNA inhibition (HepG2, 2.5 µM): 31% | target mRNA inhibition (HepG2, 10 µM): 78%

CTCACATGCCTGAGGGCAGC (sugars e5 d10 e5, PS)
target mRNA inhibition (HepG2, 2.5 µM): 65% | target mRNA inhibition (HepG2, 10 µM): 87%

CTCAGAGACTCAGCCGCACC (sugars e5 d10 e5, PS)
target mRNA inhibition (HepG2, 0.12 µM): 80% | target mRNA inhibition (HepG2, 2.5 µM): 30% | target mRNA inhibition (HepG2, 10 µM): 91% | target mRNA inhibition (HepG2, 20 µM): 54%

CTCTGCGCGATTCACTGAGG (sugars e5 d10 e5, PS)
target mRNA inhibition (HepG2, 2.5 µM): 53% | target mRNA inhibition (HepG2, 10 µM): 86%

CTGAATCAAAATCTGCATTT (sugars e5 d10 e5, PS)
target mRNA inhibition (HepG2, 0.12 µM): 28%

CTGACACACAATATCCATGG (sugars e5 d10 e5, PS)
target mRNA inhibition (HepG2, 2.5 µM): 76% and 57% | target mRNA inhibition (HepG2, 10 µM): 93% and 85%

CTGCACTCTCTCTGCACACT (sugars e5 d10 e5, PS)
target mRNA inhibition (HepG2, 2.5 µM): 65% and 83% | target mRNA inhibition (HepG2, 10 µM): 81% and 90%

CTGCAGGCCACTCCCAGTAC (sugars e5 d10 e5, PS)
target mRNA inhibition (HepG2, 0.12 µM): 40%

CTGCGCGATTCACTGAGGAC (sugars e5 d10 e5, PS)
target mRNA inhibition (HepG2, 2.5 µM): 78% | target mRNA inhibition (HepG2, 10 µM): 71%

CTGGAACTTCTTCTGGACCC (sugars e5 d10 e5, PS)
target mRNA inhibition (HepG2, 0.12 µM): 25%

CTGGTCCAGGGAGAGACCAA (sugars e5 d10 e5, PS)
target mRNA inhibition (HepG2, 0.12 µM): 25%

CTGGTGGTCAGCAGGTTGTG (sugars e5 d10 e5, PS)
target mRNA inhibition (HepG2, 0.12 µM): 57%

CTGTGGCACTAAGCTAGGCA (sugars e5 d10 e5, PS)
target mRNA inhibition (HepG2, 2.5 µM): 64% | target mRNA inhibition (HepG2, 10 µM): 82%

CTTATCCTTGAGGGTCTCAT (sugars e5 d10 e5, PS)
target mRNA inhibition (HepG2, 2.5 µM): 56% | target mRNA inhibition (HepG2, 10 µM): 77%

CTTCACCAGCTGGATGGGAA (sugars e5 d10 e5, PS)
target mRNA inhibition (HepG2, 0.12 µM): 36%

CTTCTTGCTCACTTCTGTGG (sugars e5 d10 e5, PS)
target mRNA inhibition (HepG2, 0.12 µM): 25%

CTTGCTCACTTCTGTGGCCT (sugars e5 d10 e5, PS)
target mRNA inhibition (HepG2, 0.12 µM): 48%

GAAAACTTAGGCATGCTTCC (sugars e5 d10 e5, PS)
target mRNA inhibition (HepG2, 2.5 µM): 59% | target mRNA inhibition (HepG2, 10 µM): 92%

GAAATCTGAGTGCTGCTAAC (sugars e5 d10 e5, PS)
target mRNA inhibition (HepG2, 2.5 µM): 71% | target mRNA inhibition (HepG2, 10 µM): 91%

GAACTTCTTCTGGACCCATC (sugars e5 d10 e5, PS)
target mRNA inhibition (HepG2, 0.12 µM): 19%

GAAGGCACAGAAAAGTGAGG (sugars e5 d10 e5, PS)
target mRNA inhibition (HepG2, 0.12 µM): 11%

GAAGGCACCCAGGCCCATGA (sugars e5 d10 e5, PS)
target mRNA inhibition (HepG2, 0.12 µM): 38%

GACAAGCGACAGCCCTGTGC (sugars e5 d10 e5, PS)
target mRNA inhibition (HepG2, 2.5 µM): 75% | target mRNA inhibition (HepG2, 10 µM): 79%

GACAGCTGTGATGACTTCCC (sugars e5 d10 e5, PS)
target mRNA inhibition (HepG2, 2.5 µM): 73% | target mRNA inhibition (HepG2, 10 µM): 87%

GACAGGACCCACTGGAGCAC (sugars e2 d13 e5, PS)
target mRNA inhibition (HepG2, 0.12 µM): 73%

GACAGGACCCACTGGAGCAC (sugars e3 d14 e3, PS)
target mRNA inhibition (HepG2, 0.12 µM): 58%

GACCCACTGGAGCACTGAGA (sugars e3 d14 e3, PS)
target mRNA inhibition (HepG2, 0.12 µM): 56%

GACCCACTGGAGCACTGAGA (sugars e5 d10 e5, PS)
target mRNA inhibition (HepG2, 0.12 µM): 69%
